Common to all, as to format: cell-based
Experiment [1] has as its system Tet1 deficient mouse BM progenitor cells transduced with MLL-AF9. The experiment in a line: Viability of MLL-AF9-transduced Tet1 deficient BM progenitor cells. The conditions noted are these: 48 hrs; 200 nM (FIG. 13). As for the experimental part:
FIG. 5. […] Gene expression levels are shown. […] ChIP-qPCR assay was carried out 48 hrs after drug treatment. Enrichment of STAT3, STAT5, or IgG at the TET1 promoter region and other regions are shown. […] BM progenitor cells of wild-type or Tet1^−/− mice were retrovirally transduced with MLL-AF9. […] Relative cell viabilities are shown. (m) Cre-Tet1f mouse BM progenitor cells were retrovirally transduced with MLL-AF9. […] Relative cell viability is shown. (n-o) THP-1 (n) and MONOMAC-6 (o) cells were infected with lentivirus of pLenti-puro vector-based Tet1 construct. […] Relative cell viability is shown. *, P<0.05; **, P<0.01, two-tailed t-test. Error bar indicates SD of triplicate experiments.
FIG. 13. […] (a-d) BM progenitor cells of wild-type or Tet1^−/− mice were retrovirally transduced with MLL-AF9. Infected cells were treated with 200 nM JAK/STAT inhibitors individually, including Pacritinib (a), KW-2449 (b), Stattic (c) or sc-355979 (d), for 48 hrs. Relative cell viabilities are shown. (e) Cre-Tet1^fl/fl mouse BM progenitor cells were retrovirally transduced with MLL-AF9. […] Cell viabilities (normalized to non-induced Cre-Tet1^fl/fl treated with DMSO control) are shown. ‘K, P<0.05; ‘K‘K, P<0.01, two-tailed t-test
siRNAs were transfected into MONOMAC-6 cells with Cell Line Nucleofector Kit V following program T-037, using the Amaxa Nucleofector Technology (Amaxa Biosystems, Berlin, Germany). Experiments were performed 48 h after transfection. Retrovirus infection of mouse BM progenitor cells were conducted as described previously with some modifications. Briefly, retrovirus vectors were co-transfected with pCL-Eco packaging vector (IMGENEX, San Diego, Calif.) into HEK293T cells using Effectene Transfection Reagent (Qiagen, Valencia, Calif.) to produce retrovirus. BM cells were harvested from a cohort of 4- to 6-week-old C57BL/6, Tet1^−/−, or Cre-Tet1^fl/fl donor mice after five days of 5-fluorouracil (5-FU) treatment, and primitive hematopoietic progenitor cells were enriched with Mouse Lineage Cell Depletion Kit (Miltenyi Biotec Inc., Auburn, Calif.). An aliquot of enriched hematopoietic progenitor cells was added to retroviral supernatant together with polybrene in cell culture plates, which were centrifuged at 2,000 g for 2 hours at 32° C. (i.e., spinoculation) and then the medium was replaced with fresh media and incubated for 20 hours at 37° C. Next day, the same procedure was repeated once. Infected cells were grown in RPMI 1640 medium containing 10 ng/mL murine recombinant IL-3, 10 ng/mL IL-6, 100 ng/mL murine recombinant SCF (R&D Systems, Minneapolis, Minn.), along with 1.0 mg/ml of G418. Experiments were performed 7 days after infection.
(§1) These experiments were conducted as described previously (Jiang, X., et al., Blockade of miR-150 Maturation by MLL-Fusion/MYC/LIN-28 Is Required for MLL-Associated Leukemia, Cancer Cell 22:524-35 (2012); Li, Z., et al., miR-196b directly targets both HOXA9/MEIS1 oncogenes and FAS tumour suppressor in MLL-rearranged leukaemia, Nat Commun 2:688 (2012)) with ApoLive-Glo Multiplex Assay Kit, or CellTiter 96 AQueous Non-Radioactive Cell Proliferation Assay Kit (Promega, Madison, Wis.).

Experiment [2] deals with TET1-high AML (including MONOMAC-6, THP-1, and KASUMI-1) cells. The experiment in a line: MTS viability of AML cell lines versus JAK/STAT inhibitors. The following applies: MTS 48 hrs; maximum concentration tested 500 nM. As for the experimental part:
FIG. 4. […] (a) Structures of NSC-370284 and UC-514321. […] Cells were treated with drugs at indicated doses. Cell viability was detected by MTS 48 hrs post-treatment. Error bar indicates SD of triplicate experiments. […] Secondary BMT recipient mice were transplanted with primary leukemic BM cells with MLL-AF9 (f) or AML-ETO9a (g). […] Kaplan-Meier curves are shown. The P values were determined by log-rank test. […] Secondary BMT recipient mice were transplanted with primary leukemic BM cells with MLL-AF10 or FLT3-ITD/NPM1^mut. […] Kaplan-Meier curves are shown. The P values were determined by log-rank test. (j) Wright-Giemsa staining of mouse PB and BM, or H&E staining of mouse spleen and liver of MLL-AF9 AML secondary BMT recipients with or without drug treatment.
as §1

Experiment [3] relates to THP-1 NSC-370284-resistant clones. The experiment in a line: Viability of THP-1 NSC-370284-resistant clones with chemotherapy drugs. The following applies: 3 resistant clones; 48 hours. As for the experimental part:
FIG. 6. […] (a) NSC-370284-resistant AML cells are sensitive to DNR. Three of the THP-1 NSC-370284-resistant clones (DRC-1-3) and the parental control were treated with DNR at indicated doses. Cell viability was tested 48 hours after the treatments. […] Relative cell viability at 48 hours post drug treatment is shown. Error bar indicates SD of triplicate experiments. (d) Synergistic therapy of NSC-370284 or UC-514321 in combination with standard chemotherapy. Secondary BMT recipient mice were transplanted with primary MLL-AF9 leukemic BM cells. […] 5-9 mice were included in each group. Kaplan-Meier curves are shown. The P values were determined by log-rank test. (e) Wright-Giemsa staining of mouse PB and BM, or H&E staining of mouse spleen and liver of MLL-AF9 secondary BMT recipients treated with “5+3” alone, or combinational therapy.
Long-term treatment with a drug may cause drug resistance in patients, and thus combinatory therapy is often required. To treat AML cells that have gained resistance to inhibitors, the effects of a set of first-line AML chemotherapy drugs including daunorubicin (DNR), cytarabine (AraC), all-trans retinoic acid (ATRA), azacytidine (AZA), and decitabine (DAC) on the viability of parental THP-1 cells and three NSC-370284-resistant clones were investigated (FIG. 6a and FIG. 18a-d).

This is an account of results in patent US11311513B2, “Methods, agents, and compositions for the treatment of acute myeloid leukemia” (UNIVERSITY OF CINCINNATI, priority 2017, dated 2022).

The structures appear in SMILES notation.

As for `C1=C/COCc2cc(ccc2OCCN2CCCC2)Nc2nccc(n2)-c2cccc(c2)COC/1` [Pacritinib, reference compound], the “difference in cell viability between wild-type and Tet1 deficient cells” value (“difference” below) in experiment [1] is reported as “no significant differences”.

Regarding `O=C(NN=Cc1coc2ccccc2c1=O)c1cccnc1` [sc-355979, reference compound], the “difference” value in experiment [1] is reported as “no significant differences”. Moreover, the “inhibitory effects on the viability of these AML cells” value in experiment [2] is “did not show significant inhibitory effects”.

Consider `O=[N+]([O-])c1ccc2c(c1)S(=O)(=O)C=C2` [Stattic, reference compound], for which, in experiment [1], the “difference” value is reported as “no significant differences”. Also, the “inhibitory effects on the viability of these AML cells” value in experiment [2] is “did not show significant inhibitory effects”.

As to `COc1cccc2c1C(=O)c1c(O)c3c(c(O)c1C2=O)C[C@@](O)(C(C)=O)C[C@@H]3O[C@H]1C[C@H](N)[C@H](O)[C@H](C)O1` [DNR, daunorubicin], the “sensitivity of drug-resistant clones relative to parental THP-1 control” value in experiment [3] is on record as “much more sensitive”.

For the compound `O=C(c1ccc(/C=C/c2n[nH]c3ccccc23)cc1)N1CCNCC1` [KW-2449, reference compound], the “difference” value in experiment [1] is reported as “no significant differences”.
